Experimental data from the supplement of paper PMC4858399.
Structures can show the parent of a compound that is named as a salt.

Assays:
Conditions in all cases: exposure time 48 h
[1] = system: Caenorhabditis elegans N2; assay: lowest effective concentration for larval growth inhibition (size below effect threshold); higher = less potent
Outline: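 Each well of a 96-well plate received 50 C. elegans N2 L1 larvae, which grew for 48 h at 20°C in K-medium containing killed bacteria, 1% DMSO and the chemical at 0.5, 1, 5, 10, 50, 100 or 200 µM. A Biosort recorded the extinction of every worm as its size, and these readings were log-transformed and averaged per well. The lowest effective concentration is defined as the first dose at which the plate-adjusted mean size falls below the threshold and stays below it at all higher doses; that threshold is 5.665.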

[2] = system: Caenorhabditis elegans N2; assay: mean nematode size ln(EXT) after 48 h, plate-adjusted (DMSO control set to 6) (ln(EXT), control-adjusted); higher = larger nematodes / less growth inhibition
Outline: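 Synchronised C. elegans N2 L1 larvae (50 per well, 4–6 wells per treatment) were grown for 48 h at 20°C in K-medium with killed OP50, 1% DMSO and 0.5–200 µM chemical. The Biosort measured each worm's extinction, and debris was removed by a growth model. Values were natural-logged and averaged per well. Mean size was then plate-adjusted by subtracting the vehicle control mean and adding 6.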

[3] = system: Caenorhabditis elegans N2; assay: AC50 for larval growth inhibition (Hill fit); higher = less potent
Outline: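 After 48 h at 20°C in K-medium with killed OP50, 1% DMSO and 0.5–200 µM chemical, synchronised C. elegans N2 L1 larvae (50 per well, 96-well plates) were sized individually as extinction on a COPAS Biosort. These values were log-transformed and averaged per well, and wells with fewer than 10 worms were excluded. The AC50 was derived from a constrained Hill fit by weighted genetic-algorithm regression, and out-of-range values are censored.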

SMILES | lowest effective concentration [1] | mean nematode size ln(EXT) (ln) ([2]; 0.5 µM) | mean nematode size ln(EXT) (ln) ([2]; 1 µM) | mean nematode size ln(EXT) (ln) ([2]; 5 µM) | mean nematode size ln(EXT) (ln) ([2]; 10 µM) | mean nematode size ln(EXT) (ln) ([2]; 50 µM) | mean nematode size ln(EXT) (ln) ([2]; 100 µM) | mean nematode size ln(EXT) (ln) ([2]; 200 µM) | AC50 for larval growth inhibition [3]
COc1ccc(O)c(C(C)(C)C)c1 [2-tert-Butyl-4-methoxy-phenol] | 200 µM | 5.78 | 5.98 | 5.87 | 5.84 | 5.94 | 5.8 | 5.54 | > 200 µM
CC(C)(C)c1ccc(O)c(C(C)(C)C)c1 [2,4-Di-tert-butylphenol] | 50 µM | 5.97 | 5.97 | 5.99 | 5.88 | 5.62 | 5.5 | 4.45 | 186 µM
COC(=O)c1ccc(C(=O)OC)cc1 [Dimethyl terephthalate] | 200 µM | 5.9 | 5.9 | 5.87 | 5.83 | 5.81 | 5.83 | 5.09 | > 200 µM
OCC(O)CO [Glycerol] | 200 µM | 5.83 | 5.87 | 5.84 | 5.75 | 5.87 | 5.87 | 5.66 | > 200 µM
CCOc1cc(Oc2ccc(C(F)(F)F)cc2Cl)ccc1[N+](=O)[O-] [Oxyfluorfen] | ≤ 0.5 µM | 5.57 | 5.42 | 4.64 | 3.99 | 3.63 | 3.63 | 3.46 | 3.64 µM
O=[N+]([O-])C(Br)(CO)CO [Bronopol] | 50 µM | 5.88 | 5.93 | 5.93 | 5.84 | 5.65 | 5.56 | 4.95 | > 200 µM
C[C@]12CCC(=O)C=C1CC[C@@H]1[C@@H]2CC[C@]2(C)C(=O)CC[C@@H]12 [Androstenedione] | 200 µM | 5.85 | 5.91 | 5.86 | 5.99 | 5.89 | 5.84 | 5.66 | > 200 µM
CC(C)N(Cc1ccccc1)C(=O)C(C)(C)C [Butam] | 200 µM | 5.94 | 5.88 | 5.91 | 5.86 | 5.88 | 5.86 | 5.61 | > 200 µM
CCSC(=O)N(CC)C1CCCCC1 [Cycloate] | 200 µM | 6.06 | 6.1 | 5.93 | 6.05 | 6.03 | 5.76 | 5.06 | 105 µM
C[Si]1(C)O[Si](C)(C)O[Si](C)(C)O[Si](C)(C)O1 [Octamethylcyclotetrasiloxane] | 200 µM | 5.99 | 5.98 | 5.96 | 5.97 | 5.98 | 6.05 | 4.48 | 183 µM
CC1(C)C(C(=O)OC(C#N)c2cccc(Oc3ccccc3)c2)C1(C)C (centres undefined) [Fenpropathrin] | 50 µM | 5.91 | 5.81 | 5.77 | 5.93 | 5.22 | 5.22 | 4.68 | > 200 µM
CCCCCCC(=O)O [Heptanoic acid] | 200 µM | 5.88 | 5.97 | 5.87 | 6.04 | 5.85 | 5.87 | 5.43 | > 200 µM
O=P(Oc1ccccc1)(Oc1ccccc1)Oc1ccccc1 [Triphenyl phosphate] | 1 µM | 5.84 | 5.63 | 5.25 | 4.99 | 4.17 | 3.78 | 3.66 | 20.5 µM
c1cc2c3c(cccc3c1)CC2 [Acenaphthene] | 200 µM | 6.14 | 5.74 | 6.03 | 6.08 | 5.6 | 5.77 | 5.37 | > 200 µM
O=C(N[C@H]1CN2CCC1CC2)c1cc2ccoc2cn1 | 200 µM | 5.73 | 5.89 | 5.88 | 5.78 | 5.86 | 5.86 | 5.65 | > 200 µM
CCCSP(=O)(OCC)SCCC [Ethoprop] | 10 µM | 5.83 | 5.78 | 5.68 | 5.55 | 4.81 | 4.35 | 4.19 | 76.3 µM
COP(=S)(OC)Oc1ccc([N+](=O)[O-])c(C)c1 [Fenitrothion] | 5 µM | 5.97 | 5.72 | 5.6 | 5.46 | 4.49 | 3.96 | 4.09 | 37 µM
Nc1ccc(Cl)cc1N [4-Chloro-o-phenylenediamine] | 50 µM | 5.89 | 5.85 | 5.91 | 5.85 | 5.36 | 5.03 | 5.01 | 39 µM
Brc1ccc(Oc2ccccc2)cc1 [p-Bromodiphenyl-ether] | 5 µM | 5.7 | 5.75 | 5.55 | 5.54 | 4.74 | 4.03 | 3.65 | 52.5 µM
CCCCN1C(=O)[C@@H]([C@H](O)C2CCCCC2)NC(=O)C12CCN(Cc1ccc(Oc3ccc(C(=O)O)cc3)cc1)CC2 [Aplaviroc hydrochloride] | 200 µM | 5.87 | 5.82 | 5.8 | 5.88 | 5.87 | 5.74 | 5.55 | > 200 µM
NS(=O)(=O)C(F)(F)C(F)(F)C(F)(F)C(F)(F)C(F)(F)C(F)(F)C(F)(F)C(F)(F)F [Perfluorooctanesulfonamide] | 5 µM | 5.89 | 5.86 | 5.26 | 4.64 | 3.6 | 3.86 | 3.65 | 7.84 µM
